The nature of this data set: Storing stability of water-soluble composition extracted with citric acid. It is filed as physicochemical. Particulars: dried composition. The method, then: 0.1 M citric acid was added to the pulverized product of the dried leaves obtained by the same method as in Example 2, and stirred at 60° C. After insoluble matter was filtered off, the solution was neutralized to pH 6.0 with 0.1 N sodium hydroxide, dispensed in 1 ml aliquots into test tubes, and concentrated to dryness by centrifugation.
First, 1 ml of 50% ethanol was added to one of the test tubes to dissolve solid content. The solution was filtered through a 0.2 μm membrane filter, and then conophylline and conophyllidine were analyzed by HPLC.
Next, the remaining test tubes were divided into five groups, each of which being stored at −30° C. (shielded from light), 4° C. (shielded from light), 4° C. (not shielded from light), 30° C. (shielded from light), and 50° C. (shielded from light). After a lapse of a certain period of time, the composition was dissolved by addition of 50% ethanol, filtered, and analyzed by HPLC.

Regarding `CC[C@@]12C=CCN3CC[C@]4(C(=C(C(=O)OC)C1)Nc1cc5c(cc14)[C@H]1[C@@H](O5)[C@H](O)[C@]4(CC)CC(C(=O)OC)=C5Nc6c(cc(O)c(OC)c6OC)[C@@]56CCN1[C@H]46)[C@H]32` (stereo in doubt) [Conophyllidine, conophyllidine], the storing stability result runs as follows: (4° C., not shielded from light) “gradually decreased (degraded)”; (−30, 4, 30, 50° C., shielded from light) “very stable”.

The values above are taken from patent US8178135B2, “Aqueous solution of conophylline and/or conophyllidine” (Keio University, priority 2006, dated 2012).
